According to PubChem BioAssay AID248 (DTP/NCI, 2004):
Values joined by “and” are separate entries in the source; they are usually repeats but may differ in a detail not shown here. Equal entries are not always repeated. Toxic doses and inconclusive results are not listed. Rule as the data show it: active = T/C of 150% or more; inactive = T/C below 125%.

Tested on: L1210 leukemia ip in BDF1 mice, survival T/C
Assay: NCI In Vivo Anticancer Drug Screen. Data for tumor model L1210 Leukemia (intraperitoneal) in B6D2F1 (BDF1) mice
Settings: endpoint: mean survival time, higher = longer survival
Outline: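 Antitumor effect is assessed in tumor-bearing animals. Survival in the compound arm is compared with a vehicle-dosed control arm and expressed as their quotient.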

[1] = dose: 100.0 mg/kg/injection, schedule: Q01DX009 (ip), vehicle: saline with Tween-80
[2] = dose: 100.0 mg/kg/injection, schedule: Q04DX003 (ip), vehicle: saline with Tween-80
[3] = dose: 200.0 mg/kg/injection, schedule: Q01DX009 (ip), vehicle: saline with Tween-80
[4] = dose: 200.0 mg/kg/injection, schedule: Q04DX003 (ip), vehicle: saline with Tween-80
[5] = dose: 400.0 mg/kg/injection, schedule: Q01DX009 (ip), vehicle: saline with Tween-80
[6] = dose: 50.0 mg/kg/injection, schedule: Q01DX009 (ip), vehicle: saline with Tween-80
[7] = dose: 100.0 mg/kg/injection, schedule: Q04DX003 (ip), vehicle: saline
[8] = dose: 200.0 mg/kg/injection, schedule: Q04DX003 (ip), vehicle: saline
[9] = dose: 100.0 mg/kg/injection, schedule: Q01DX001 (ip), vehicle: carboxymethylcellulose (CMC)
[10] = dose: 200.0 mg/kg/injection, schedule: Q01DX001 (ip), vehicle: carboxymethylcellulose (CMC)
[11] = dose: 400.0 mg/kg/injection, schedule: Q01DX001 (ip), vehicle: carboxymethylcellulose (CMC)
[12] = dose: 100.0 mg/kg/injection, schedule: Q01DX009 (ip), vehicle: Klucel (hydroxypropylcellulose) (HPC)
[13] = dose: 100.0 mg/kg/injection, schedule: Q04DX003 (ip), vehicle: Klucel (hydroxypropylcellulose) (HPC)
[14] = dose: 200.0 mg/kg/injection, schedule: Q01DX009 (ip), vehicle: Klucel (hydroxypropylcellulose) (HPC)
[15] = dose: 200.0 mg/kg/injection, schedule: Q04DX003 (ip), vehicle: Klucel (hydroxypropylcellulose) (HPC)
[16] = dose: 400.0 mg/kg/injection, schedule: Q01DX009 (ip), vehicle: Klucel (hydroxypropylcellulose) (HPC)
[17] = dose: 400.0 mg/kg/injection, schedule: Q04DX003 (ip), vehicle: Klucel (hydroxypropylcellulose) (HPC)
[18] = dose: 100.0 mg/kg/injection, schedule: Q01DX001 (ip), vehicle: saline
[19] = dose: 200.0 mg/kg/injection, schedule: Q01DX001 (ip), vehicle: saline
[20] = dose: 400.0 mg/kg/injection, schedule: Q01DX001 (ip), vehicle: saline
[21] = dose: 400.0 mg/kg/injection, schedule: Q04DX003 (ip), vehicle: saline
[22] = dose: 50.0 mg/kg/injection, schedule: Q01DX009 (ip), vehicle: Klucel (hydroxypropylcellulose) (HPC)

Measured: T/C

CC12CC3CC(C)(C1)CC(N)(C3)C2
inactive: dose: 50.0 mg/kg/injection, schedule: Q01DX001 (ip), vehicle: carboxymethylcellulose (CMC) 98 % of control

CCOC(=O)C(C)C(=O)Cc1cc(OC)c(C)cc1Br (centres undefined)
inactive: [1] 97 % of control | [2] 97 % of control | [3] 100 % of control | [4] 95 % of control | [5] 105 % of control | dose: 400.0 mg/kg/injection, schedule: Q04DX003 (ip), vehicle: saline with Tween-80 109 % of control

Cc1ccccc1S(=O)(=O)NSc1ccccc1[N+](=O)[O-]
inactive: dose: 75.0 mg/kg/injection, schedule: Q01DX001 (ip), vehicle: other 101 % of control | dose: 150.0 mg/kg/injection, schedule: Q01DX001 (ip), vehicle: other 95 % of control | dose: 300.0 mg/kg/injection, schedule: Q01DX001 (ip), vehicle: other 95 % of control

c1ccc2c(c1)Cc1ccccc1CN(CCNC1=NCCN1)C2
inactive: dose: 25.0 mg/kg/injection, schedule: Q01DX009 (ip), vehicle: saline with Tween-80 91 % of control | [6] 102 % of control | [2] 98 % of control

CCC(C)C(C)NC(C)=O (centres undefined)
inactive: [7] 101 % of control | [8] 113 % of control

O=C1/C(=C/c2cccc3ccccc23)CCc2ccccc21
inactive: [9] 97 % of control | [10] 95 % of control | [11] 97 % of control

NNC(=O)CCc1ccccc1[N+](=O)[O-]
inactive: dose: 40.0 mg/kg/injection, schedule: Q04DX003 (ip), vehicle: saline 108 % of control | dose: 75.0 mg/kg/injection, schedule: Q01DX001 (ip), vehicle: saline 93 % of control | dose: 75.0 mg/kg/injection, schedule: Q04DX003 (ip), vehicle: saline 98 % of control | dose: 150.0 mg/kg/injection, schedule: Q01DX001 (ip), vehicle: saline 96 % of control | dose: 150.0 mg/kg/injection, schedule: Q04DX003 (ip), vehicle: saline 101 % of control

CCOC(=O)c1cc([N+](=O)[O-])cnc1C
inactive: dose: 100.0 mg/kg/injection, schedule: Q01DX001 (ip), vehicle: saline sonified 96 % of control | dose: 200.0 mg/kg/injection, schedule: Q01DX001 (ip), vehicle: saline sonified 96 % of control | dose: 400.0 mg/kg/injection, schedule: Q01DX001 (ip), vehicle: saline sonified 97 % of control

NC(=O)C(Cc1ccc(O)cc1)NC(=O)c1ccccc1 (centres undefined)
inactive: [12] 95 % of control | [13] 105 % of control | [14] 90 % of control | [15] 102 % of control | [16] 93 % of control | [17] 94 % of control

O=C(NC1CCCC2C(NC(=O)c3ccccc3)CCCC12)c1ccccc1 (centres undefined)
inactive: [18] 91 % of control | [1] 89 % of control | [7] 92 % of control | [19] 91 % of control | [3] 89 % of control | [8] 91 % of control | [20] 94 % of control | [5] 95 % of control | [21] 86 % of control

CCOC(=O)CCC(C)(c1ccc(O)cc1)c1ccc(O)cc1
inactive: [6] 98 % of control | dose: 50.0 mg/kg/injection, schedule: Q04DX003 (ip), vehicle: saline with Tween-80 93 % of control | [1] 96 % of control | [2] 93 % of control | [3] 96 % of control | [4] 102 % of control

O=C(O)c1cccc2ccc3ccccc3c12
inactive: [18] 121 % of control | [7] 102 % of control | [19] 101 % of control | [8] 96 % of control | [20] 97 % of control | [21] 96 % of control

Cn1c(=O)c2[nH]c(C3CCC3)nc2n(C)c1=O
inactive: dose: 50.0 mg/kg/injection, schedule: Q01DX001 (ip), vehicle: saline 110 % of control | [18] 113 % of control | [19] 101 % of control | [20] 107 % of control

Clc1ccnc(SCc2ccccc2)n1
inactive: dose: 100.0 mg/kg/injection, schedule: Q01DX Z (ip), vehicle: methylcellulose (MC) 91 % of control | dose: 200.0 mg/kg/injection, schedule: Q01DX Z (ip), vehicle: methylcellulose (MC) 104 % of control

CCOC(=O)C(COC)C(C(=O)CC)C(=O)OCC (centres undefined)
inactive: dose: 100.0 mg/kg/injection, schedule: Q01DX001 (ip), vehicle: other 102 % of control | dose: 200.0 mg/kg/injection, schedule: Q01DX001 (ip), vehicle: other 89 % of control | dose: 400.0 mg/kg/injection, schedule: Q01DX001 (ip), vehicle: other 96 % of control

COC(=O)COc1ccc(Cl)c2ccccc12
inactive: dose: 50.0 mg/kg/injection, schedule: Q04DX002 (ip), vehicle: Klucel (hydroxypropylcellulose) (HPC) 89 % of control | dose: 100.0 mg/kg/injection, schedule: Q04DX002 (ip), vehicle: Klucel (hydroxypropylcellulose) (HPC) 96 % of control | dose: 200.0 mg/kg/injection, schedule: Q04DX002 (ip), vehicle: Klucel (hydroxypropylcellulose) (HPC) 99 % of control and 105 % of control | dose: 400.0 mg/kg/injection, schedule: Q04DX002 (ip), vehicle: Klucel (hydroxypropylcellulose) (HPC) 92 % of control

CCN(CC)CCNc1cccc2sc3ccccc3c(=O)c12
inactive: [22] 92 % of control | [12] 94 % of control | [14] 94 % of control | [16] 100 % of control

CC(C)(C)NC(=O)Nc1cccc2c(O)cccc12
inactive: dose: 100.0 mg/kg/injection, schedule: Q04DX002 (ip), vehicle: saline with Tween-80 95 % of control | dose: 200.0 mg/kg/injection, schedule: Q04DX002 (ip), vehicle: saline with Tween-80 95 % of control | dose: 400.0 mg/kg/injection, schedule: Q04DX002 (ip), vehicle: saline with Tween-80 98 % of control

OCCOCC#CCOCCO
inactive: dose: 100.0 mg/kg/injection, schedule: Q01DX009 (ip), vehicle: saline 102 % of control | dose: 200.0 mg/kg/injection, schedule: Q01DX009 (ip), vehicle: saline 96 % of control | dose: 400.0 mg/kg/injection, schedule: Q01DX009 (ip), vehicle: saline 98 % of control

O=C(Nc1ccccc1C(F)(F)F)N(CCO)C1CCCCC1
inactive: [12] 100 % of control | [14] 103 % of control | [16] 101 % of control

O=C1CNc2ccccc2N1
inactive: [13] 103 % of control | [15] 92 % of control | [17] 92 % of control

Fc1cnc(OC23CC4CC(CC(C4)C2)C3)nc1OC12CC3CC(CC(C3)C1)C2
inactive: [13] 86 % of control | [15] 88 % of control | [17] 88 % of control

CCCC(C)(O)C(C)(C)C (centres undefined)
inactive: [9] 106 % of control | [10] 106 % of control | [11] 90 % of control

CC(C)CN(OC(=O)c1ccccc1)[N+](=O)[O-]
inactive: dose: 50.0 mg/kg/injection, schedule: Q04DX002 (ip), vehicle: saline 94 % of control | dose: 100.0 mg/kg/injection, schedule: Q04DX002 (ip), vehicle: saline 108 % of control | dose: 200.0 mg/kg/injection, schedule: Q04DX002 (ip), vehicle: saline 102 % of control

O=c1[nH][nH]c2c1cnc1ccccc12
inactive: [22] 97 % of control | [12] 101 % of control | [14] 94 % of control

Cc1nnc2ccnn2c1C
inactive: [18] 96 % of control | [19] 96 % of control | [20] 100 % of control

Cc1nc2c(Cl)cc(Cl)cc2s1
inactive: dose: 100.0 mg/kg/injection, schedule: Q01DX001 (ip), vehicle: acetone 100 % of control | [7] 95 % of control | dose: 200.0 mg/kg/injection, schedule: Q01DX001 (ip), vehicle: acetone 106 % of control | [8] 90 % of control | dose: 400.0 mg/kg/injection, schedule: Q01DX001 (ip), vehicle: acetone 102 % of control | [21] 92 % of control

CCOc1ccccc1NC(=O)c1cccc(C(=O)Nc2ccccc2OCC)c1
inactive: [12] 92 % of control | [13] 90 % of control | [14] 88 % of control | [15] 96 % of control | [16] 88 % of control | [17] 90 % of control
